Data reported in PubChem BioAssay AID1919000 (Molecular Pharmacology Branch, DTP, NCI, 2023).
pIC50: −log10 of the molar value.

Tested on: 653999-131-R-J2-PDC complex spheroids, growth % test/control
Assay: Anticancer human tumor 653999-131-R-J2-PDC patient-derived lung adenocarcinoma cell line growth inhibition [AhR]
Conditions: for pIC50: curve of first compound; for viability, T/C: stronger effect = lower value
Outline: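 Complex tumor spheroids co-cultured with HUVEC and human MSC stroma; AhR antagonists tested in combination with standard-of-care and investigational agents. Top concentration at or near clinical Cmax (else 10 microM), half-log dilutions; growth expressed as percent test/control.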

[1] = second compound 0.1 µM, first compound 0.0316 µM
[2] = second compound 0.1 µM, first compound 0.1 µM
[3] = second compound 0.1 µM, first compound 0.316 µM
[4] = second compound 0.1 µM, first compound 1 µM
[5] = second compound 0.1 µM, first compound 3.16 µM
[6] = second compound 0.1 µM, first compound 10 µM
[7] = second compound 0.316 µM, first compound 0.0316 µM
[8] = second compound 0.316 µM, first compound 0.1 µM
[9] = second compound 0.316 µM, first compound 0.316 µM
[10] = second compound 0.316 µM, first compound 1 µM
[11] = second compound 0.316 µM, first compound 3.16 µM
[12] = second compound 0.316 µM, first compound 10 µM
[13] = second compound 1 µM, first compound 0.0316 µM
[14] = second compound 1 µM, first compound 0.1 µM
[15] = second compound 1 µM, first compound 0.316 µM
[16] = second compound 1 µM, first compound 1 µM
[17] = second compound 1 µM, first compound 3.16 µM
[18] = second compound 1 µM, first compound 10 µM
[19] = second compound 3.16 µM, first compound 0.0316 µM
[20] = second compound 3.16 µM, first compound 0.1 µM
[21] = second compound 3.16 µM, first compound 0.316 µM
[22] = second compound 3.16 µM, first compound 1 µM
[23] = second compound 3.16 µM, first compound 3.16 µM
[24] = second compound 3.16 µM, first compound 10 µM
[25] = second compound 10 µM, first compound 0.0316 µM
[26] = second compound 10 µM, first compound 0.1 µM
[27] = second compound 10 µM, first compound 0.316 µM
[28] = second compound 10 µM, first compound 1 µM
[29] = second compound 10 µM, first compound 3.16 µM
[30] = second compound 10 µM, first compound 10 µM
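Further: spheroids exposed to agents for seven days.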
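Wherever viability, T/C is given: 100% = DMSO vehicle control viability.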

`CC1(C)CCC(CN2CCN(c3ccc(C(=O)NS(=O)(=O)c4ccc(NCC5CCOCC5)c([N+](=O)[O-])c4)c(Oc4cnc5[nH]ccc5c4)c3)CC2)=C(c2ccc(Cl)cc2)C1` + Cc1cncc(-c2nc(NCCc3c[nH]c4ccccc34)c3ncn(C(C)C)c3n2)c1 gave a pIC50 (second compound 0.1 µM) of under 5.00, a pIC50 (second compound 0.316 µM) of under 5.00 and a pIC50 (second compound 1 µM) of under 5.00. For the same molecule, the pIC50 (second compound 3.16 µM) was under 5.00, the pIC50 (second compound 10 µM) was under 5.00 and the viability, T/C [1] was 92.8%. The viability, T/C [2] was 93.8%, the viability, T/C [3] was 89% and the viability, T/C [4] was 101%. The viability, T/C [5] was 94.2%, the viability, T/C [6] was 85.8% and the viability, T/C [7] was 97.8%. For the same molecule, the viability, T/C [8] was 90.7%, the viability, T/C [9] was 94.8% and the viability, T/C [10] was 97.8%. It also gave a viability, T/C [11] of 116%, a viability, T/C [12] of 83% and a viability, T/C [13] of 103%. For the same molecule, the viability, T/C [14] was 108%, the viability, T/C [15] was 109% and the viability, T/C [16] was 102%. It also gave a viability, T/C [17] of 116%, a viability, T/C [18] of 105% and a viability, T/C [19] of 105%. It also gave a viability, T/C [20] of 105%, a viability, T/C [21] of 109% and a viability, T/C [22] of 115%. The viability, T/C [23] was 104%, the viability, T/C [24] was 91.8% and the viability, T/C [25] was 59.4%. For the same molecule, the viability, T/C [26] was 61.9%, the viability, T/C [27] was 59.5% and the viability, T/C [28] was 71.3%. The viability, T/C [29] was 74.1% and the viability, T/C [30] was 62.5%.

`CCN(c1cc(-c2ccc(CN3CCOCC3)cc2)cc(C(=O)NCc2c(C)cc(C)[nH]c2=O)c1C)C1CCOCC1` + Cc1cncc(-c2nc(NCCc3c[nH]c4ccccc34)c3ncn(C(C)C)c3n2)c1 gave a pIC50 (second compound 0.1 µM) of under 5.52, a pIC50 (second compound 0.316 µM) of under 5.52 and a pIC50 (second compound 1 µM) of under 5.52. The pIC50 (second compound 3.16 µM) was under 5.52, the pIC50 (second compound 10 µM) was 6.78 and the viability, T/C (second compound 0.1 µM, first compound 0.00949 µM) was 96.7%. The viability, T/C (second compound 0.1 µM, first compound 0.03 µM) was 105%, the viability, T/C (second compound 0.1 µM, first compound 0.0949 µM) was 104% and the viability, T/C (second compound 0.1 µM, first compound 0.3 µM) was 94.6%. For the same molecule, the viability, T/C (second compound 0.1 µM, first compound 0.949 µM) was 97.9%, the viability, T/C (second compound 0.1 µM, first compound 3 µM) was 102% and the viability, T/C (second compound 0.316 µM, first compound 0.00949 µM) was 121%. The viability, T/C (second compound 0.316 µM, first compound 0.03 µM) was 122%, the viability, T/C (second compound 0.316 µM, first compound 0.0949 µM) was 106% and the viability, T/C (second compound 0.316 µM, first compound 0.3 µM) was 99.8%. For the same molecule, the viability, T/C (second compound 0.316 µM, first compound 0.949 µM) was 104%, the viability, T/C (second compound 0.316 µM, first compound 3 µM) was 103% and the viability, T/C (second compound 1 µM, first compound 0.00949 µM) was 99.7%. The viability, T/C (second compound 1 µM, first compound 0.03 µM) was 116%, the viability, T/C (second compound 1 µM, first compound 0.0949 µM) was 108% and the viability, T/C (second compound 1 µM, first compound 0.3 µM) was 114%. For the same molecule, the viability, T/C (second compound 1 µM, first compound 0.949 µM) was 104%, the viability, T/C (second compound 1 µM, first compound 3 µM) was 100% and the viability, T/C (second compound 3.16 µM, first compound 0.00949 µM) was 105%. The viability, T/C (second compound 3.16 µM, first compound 0.03 µM) was 116%, the viability, T/C (second compound 3.16 µM, first compound 0.0949 µM) was 104% and the viability, T/C (second compound 3.16 µM, first compound 0.3 µM) was 96.2%. For the same molecule, the viability, T/C (second compound 3.16 µM, first compound 0.949 µM) was 98.8%, the viability, T/C (second compound 3.16 µM, first compound 3 µM) was 113% and the viability, T/C (second compound 10 µM, first compound 0.00949 µM) was 62%. For the same molecule, the viability, T/C (second compound 10 µM, first compound 0.03 µM) was 53.3%, the viability, T/C (second compound 10 µM, first compound 0.0949 µM) was 51.6% and the viability, T/C (second compound 10 µM, first compound 0.3 µM) was 50.6%. For the same molecule, the viability, T/C (second compound 10 µM, first compound 0.949 µM) was 37.8% and the viability, T/C (second compound 10 µM, first compound 3 µM) was 28.6%.

`Cn1ncnc1C1c2n[nH]c(=O)c3cc(F)cc(c23)NC1c1ccc(F)cc1` (stereo not given) + Cc1cncc(-c2nc(NCCc3c[nH]c4ccccc34)c3ncn(C(C)C)c3n2)c1 gave a pIC50 (second compound 0.1 µM) of under 7.00, a pIC50 (second compound 0.316 µM) of under 7.00 and a pIC50 (second compound 1 µM) of under 7.00. For the same molecule, the pIC50 (second compound 3.16 µM) was under 7.00, the pIC50 (second compound 10 µM) was under 7.00 and the viability, T/C (second compound 0.1 µM, first compound 0.000316 µM) was 96%. For the same molecule, the viability, T/C (second compound 0.1 µM, first compound 0.001 µM) was 96.2%, the viability, T/C (second compound 0.1 µM, first compound 0.00316 µM) was 97.4% and the viability, T/C (second compound 0.1 µM, first compound 0.01 µM) was 84.8%. It also gave a viability, T/C [1] of 86.6%, a viability, T/C [2] of 85.6% and a viability, T/C (second compound 0.316 µM, first compound 0.000316 µM) of 97.9%. For the same molecule, the viability, T/C (second compound 0.316 µM, first compound 0.001 µM) was 92.5%, the viability, T/C (second compound 0.316 µM, first compound 0.00316 µM) was 94.3% and the viability, T/C (second compound 0.316 µM, first compound 0.01 µM) was 90.6%. For the same molecule, the viability, T/C [7] was 85.6%, the viability, T/C [8] was 86.5% and the viability, T/C (second compound 1 µM, first compound 0.000316 µM) was 104%. The viability, T/C (second compound 1 µM, first compound 0.001 µM) was 113%, the viability, T/C (second compound 1 µM, first compound 0.00316 µM) was 104% and the viability, T/C (second compound 1 µM, first compound 0.01 µM) was 101%. The viability, T/C [13] was 103%, the viability, T/C [14] was 94% and the viability, T/C (second compound 3.16 µM, first compound 0.000316 µM) was 122%. For the same molecule, the viability, T/C (second compound 3.16 µM, first compound 0.001 µM) was 99.5%, the viability, T/C (second compound 3.16 µM, first compound 0.00316 µM) was 104% and the viability, T/C (second compound 3.16 µM, first compound 0.01 µM) was 93.7%. The viability, T/C [19] was 100%, the viability, T/C [20] was 98.2% and the viability, T/C (second compound 10 µM, first compound 0.000316 µM) was 52.4%. The viability, T/C (second compound 10 µM, first compound 0.001 µM) was 55.5%, the viability, T/C (second compound 10 µM, first compound 0.00316 µM) was 62% and the viability, T/C (second compound 10 µM, first compound 0.01 µM) was 56%. For the same molecule, the viability, T/C [25] was 47.5% and the viability, T/C [26] was 58.3%.

`NS(=O)(=O)OCC1CC(n2ccc3c(NC4CCc5ccccc54)ncnc32)CC1O` (stereo not given) + Cc1cncc(-c2nc(NCCc3c[nH]c4ccccc34)c3ncn(C(C)C)c3n2)c1 showed a pIC50 (second compound 0.1 µM) of 5.21, a pIC50 (second compound 0.316 µM) of 5.75 and a pIC50 (second compound 1 µM) of under 5.00. For the same molecule, the pIC50 (second compound 3.16 µM) was 6.02, the pIC50 (second compound 10 µM) was over 7.50 and the viability, T/C [1] was 108%. For the same molecule, the viability, T/C [2] was 106%, the viability, T/C [3] was 101% and the viability, T/C [4] was 71.4%. For the same molecule, the viability, T/C [5] was 50.4%, the viability, T/C [6] was 49.8% and the viability, T/C [7] was 113%. It also gave a viability, T/C [8] of 112%, a viability, T/C [9] of 106% and a viability, T/C [10] of 52.2%. For the same molecule, the viability, T/C [11] was 48.4%, the viability, T/C [12] was 47.2% and the viability, T/C [13] was 112%. The viability, T/C [14] was 120%, the viability, T/C [15] was 108% and the viability, T/C [16] was 49.3%. The viability, T/C [17] was 50.5%, the viability, T/C [18] was 51.2% and the viability, T/C [19] was 117%. The viability, T/C [20] was 104%, the viability, T/C [21] was 90.5% and the viability, T/C [22] was 46.8%. The viability, T/C [23] was 40.5%, the viability, T/C [24] was 43.3% and the viability, T/C [25] was 44.4%. For the same molecule, the viability, T/C [26] was 38%, the viability, T/C [27] was 39.4% and the viability, T/C [28] was 22.3%. For the same molecule, the viability, T/C [29] was 18.5% and the viability, T/C [30] was 19.4%.
